Values after ≈ are worked out from the molar mass of the structure shown.
Tests used:
[1] = test system: pS6K1 (p-p70 S6 Kinase (Thr389)) in MCF-7 cells; test: AlphaLISA Ultra pS6K1 Assay; format: cell-based; details: Homo sapiens, 1.5 h; MCF7 cells, 90 min
How it was run: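 AlphaLISA Ultra read-out (acceptor beads 2 h, then donor beads 2 h) on thawed lysates of MCF-7 cells. Cells had 20–24 h after seeding and a 2 h medium change, then 90 min of compound exposure at 0.5% final DMSO, with lysates stored at −80 °C.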

[2] = Solubility in 100 mM phosphate buffer (pH 7.4); format: physicochemical; details: pH 7.4, aqueous buffer
Excerpt: The compound numbers correspond to the compound numbers in Table 1.

mTORC1 over mTORC2 = test: mTORC1 selectivity over mTORC2 at 24 hrs (Western blot based pS6K1 and pAKT assay); format: cell-based
[3] = test system: pAKT (p-Akt 1/2/3 (Ser473)) in MCF-7 cells; test: AlphaLISA Ultra pAKT Assay; format: cell-based; details: Homo sapiens, 1.5 h; MCF7 cells, 90 min
Method: AlphaLISA Ultra pAKT Assay
1. MCF-7 cells in Corning 3701 plate and incubate for 20˜24 hour.
16,000˜20,000 cells will be seeded in 36 μL medium per well.
2. Change the culture medium with fresh medium and incubate for another 90 minutes.
3. […]
4. Aspirate […] by HAMILTON, 10 μL rest per well.
5. Add 10 μL 2× lysis buffer using HAMILTON; total volume in wells is 20 μL. Allow cells to shake for 30 min. Cover plate by plastic foil and store plate at −80° C. up to analysis.
6. Thaw cell lysate at RT and transfer 10 ul lysate to assay plate (Optiplate-384).
7. Add 5 μL acceptor beads into assay plate and incubation for 2 hours
8. Add 5 μL donor beads and incubation for 2 hours
9. Count the plate by EnSpire Multimode Plate Reader

Row | IC50 [1] [nM] | solubility [2] [µM] | IC50 [3] [nM] | Compound | mTORC1 selective @ 24 hrs (mTORC1 over mTORC2) | selectivity for mTORC1 over mTORC2 as measured by the impact on pAKT (mTORC1 over mTORC2; extended periods of time (e.g., 24 hours))
1 | < 0.1 | 30 to 60 (≈ 29.6 to 59.3 µg/mL) | ≥ 100 | CO[C@@H]1C[C@H](C[C@@H](C)[C@@H]2CC(=O)[C@H](C)/C=C(\C)[C@@H](O)[C@@H](OC)C(=O)[C@H](C)C[C@H](C)/C=C/C=C/C=C(\C)[C@H](OCCOCCO)C[C@@H]3CC[C@@H](C)[C@@](O)(O3)C(=O)C(=O)N3CCCC[C@H]3C(=O)O2)CC[C@H]1O [I-19] | YES | marked selectivity
2 | 0.1 to 1 | 30 to 60 (≈ 28.7 to 57.5 µg/mL) | ≥ 100 | CO[C@@H]1C[C@H](C[C@@H](C)[C@@H]2CC(=O)[C@H](C)/C=C(\C)[C@@H](O)[C@@H](OC)C(=O)[C@H](C)C[C@H](C)/C=C/C=C/C=C(\C)C(OCCCO)C[C@@H]3CC[C@@H](C)[C@@](O)(O3)C(=O)C(=O)N3CCCC[C@H]3C(=O)O2)CC[C@H]1O (stereo partly drawn) [I-34] | NO | –
3 | 1 to 10 | 30 to 60 (≈ 29.6 to 59.3 µg/mL) | ≥ 100 | CO[C@@H]1C[C@H](C[C@@H](C)[C@@H]2CC(=O)[C@H](C)/C=C(\C)[C@@H](O)[C@@H](OC)C(=O)[C@H](C)C[C@H](C)/C=C/C=C/C=C(\C)C(OCCOCCO)C[C@@H]3CC[C@@H](C)[C@@](O)(O3)C(=O)C(=O)N3CCCC[C@H]3C(=O)O2)CC[C@H]1O (stereo partly drawn) [I-37] | YES | –
4 | 0.1 to 1 | 30 to 60 (≈ 30.1 to 60.1 µg/mL) | ≥ 100 | COCCOCCOC1C[C@@H]2CCC(C)C(O)(O2)C(=O)C(=O)N2CCCC[C@H]2C(=O)OC(C(C)CC2CCC(O)C(OC)C2)CC(=O)C(C)/C=C(\C)C(O)C(OC)C(=O)C(C)CC(C)/C=C/C=C/C=C/1C (stereo partly drawn) [I-17] | YES | –
5 | 0.1 to 1 | 30 to 60 (≈ 35.3 to 70.6 µg/mL) | ≥ 100 | CO[C@@H]1C[C@H](C[C@@H](C)[C@@H]2CC(=O)[C@H](C)/C=C(\C)[C@@H](O)[C@@H](OC)C(=O)[C@H](C)C[C@H](C)/C=C/C=C/C=C(\C)C(OCC3COCCOCCOCCOCCOCCO3)C[C@@H]3CC[C@@H](C)[C@@](O)(O3)C(=O)C(=O)N3CCCC[C@H]3C(=O)O2)CC[C@H]1O (stereo partly drawn) [I-1] | YES | –
6 | 0.1 to 1 | – | ≥ 100 | CO[C@@H]1C[C@H](C[C@@H](C)[C@@H]2CC(=O)[C@H](C)/C=C(\C)[C@@H](O)[C@@H](OC)C(=O)[C@H](C)C[C@H](C)/C=C/C=C/C=C(\C)C(OCCOCCOCCOCCO)C[C@@H]3CC[C@@H](C)[C@@](O)(O3)C(=O)C(=O)N3CCCC[C@H]3C(=O)O2)CC[C@H]1OCCO (stereo partly drawn) [I-22, (21E,23E,25E,26E,38R,39S,40R,41R,42S,45S,47S,49R,50R,59R)-49, 59-dihydroxy-46-[2-[2-[2-(2-hydroxyethoxy)ethoxy]ethoxy]ethoxy]-47-[(1R)-2-[(1S,2R, 3R)-3-(2-hydroxyethoxy)-2-methoxy-cyclohexyl]-1-methyl-ethyl]-50-methoxy-38,39,40,41,51,52-hexamethyl-70, 71-dioxa-60-azatricyclohexatriaconta-21,23,25(51),26(52)-tetraene-53, 54,55,56,57-pentone] | YES | –
7 | 1 to 10 | > 60 | ≥ 100 | CO[C@@H]1C[C@H](C[C@@H](C)[C@@H]2CC(=O)[C@H](C)/C=C(\C)[C@@H](O)[C@@H](OC)C(=O)[C@H](C)C[C@H](C)/C=C/C=C/C=C(\C)C(OCCOCCOCCOCCOCCOCCO)C[C@@H]3CC[C@@H](C)[C@@](O)(O3)C(=O)C(=O)N3CCCC[C@H]3C(=O)O2)CC[C@H]1O (stereo partly drawn) [I-33, (21E,23E,25E,26E,40R,41S,42R,43R,45R,47S,50S,51R,52R, 61S)-51,6I-dihydroxy-49-[2-[2-[2-[2-[2-(2-hydroxyethoxy)ethoxy]ethoxy]ethoxy]ethoxy]ethoxy]-50-[(1S)-2-[(1S, 3R,4R)-4-hydroxy-3-methoxy-cyclohexyl]-1-methyl-ethyl]-52-methoxy-40, 41,42,43,53,54-hexamethyl-72,73-dioxa-62-azatricyclohexatriaconta-21, 23,25(53),26(54)-tetraene-55,56,57,58,59-pentone] | YES | –
8 | 0.1 to 1 | – | ≥ 100 | CO[C@@H]1C[C@H](C[C@@H](C)[C@@H]2CC(=O)[C@H](C)/C=C(\C)[C@@H](O)[C@@H](OC)C(=O)[C@H](C)C[C@H](C)/C=C/C=C/C=C(\C)C(OCC(O)CO)C[C@@H]3CC[C@@H](C)[C@@](O)(O3)C(=O)C(=O)N3CCCC[C@H]3C(=O)O2)CC[C@H]1O (stereo partly drawn) [I-25, (21E,23E,25E,26E,30R,31S,32R,33R,35R,37S,39S,40S,41R,42R,52S)-39-(2,3-dihydroxypropoxy)-41, 52-dihydroxy-40-[(1S)-2-[(1S,3R,4R)-4-hydroxy-3-methoxy-cyclohexyl]-1-methyl-ethyl]-42-methoxy-30, 31,32,33,43,44-hexamethyl-64,65-dioxa-53-azatricyclohexatriaconta-21, 23,25(43),26(44)-tetraene-45,46,47,48,49-pentone] | YES | –
9 | 0.1 to 1 | 30 to 60 (≈ 34 to 67.9 µg/mL) | ≥ 100 | CO[C@@H]1C[C@H](C[C@@H](C)[C@@H]2CC(=O)[C@H](C)/C=C(\C)[C@@H](O)[C@@H](OC)C(=O)[C@H](C)C[C@H](C)/C=C/C=C/C=C(\C)C(OCC3COCCOCCOCCOCCO3)C[C@@H]3CC[C@@H](C)[C@@](O)(O3)C(=O)C(=O)N3CCCC[C@H]3C(=O)O2)CC[C@H]1O (stereo partly drawn) [I-3] | YES | –
10 | 0.1 to 1 | > 60 | ≥ 100 | CO[C@@H]1C[C@H](C[C@@H](C)[C@@H]2CC(=O)[C@H](C)/C=C(\C)[C@@H](O)[C@@H](OC)C(=O)[C@H](C)C[C@H](C)/C=C/C=C/C=C(\C)C(OCCOCCOCCO)C[C@@H]3CC[C@@H](C)[C@@](O)(O3)C(=O)C(=O)N3CCCC[C@H]3C(=O)O2)CC[C@H]1OCCO (stereo partly drawn) [I-32, (21E,23E,25E,26E,36R,37S,38R,39R,40S,43S,45S,47R,48R,57R)-47, 57-dihydroxy-44-[2-[2-(2-hydroxyethoxy)ethoxy]ethoxy]-45-[(1R)-2-[(1S,2R, 3R)-3-(2-hydroxyethoxy)-2-methoxy-cyclohexyl]-1-methyl-ethyl]-48-methoxy-36,37,38,39,49,50-hexamethyl-68, 69-dioxa-58-azatricyclohexatriaconta-21,23,25(49),26(50)-tetraene-51,52,53,54,55-pentone] | YES | –
11 | < 0.1 | – | ≥ 100 | CO[C@@H]1C[C@H](C[C@@H](C)[C@@H]2CC(=O)[C@H](C)/C=C(\C)[C@@H](O)[C@@H](OC)C(=O)[C@H](C)C[C@H](C)/C=C/C=C/C=C(\C)C(OCC3COCCOCCOCCO3)C[C@@H]3CC[C@@H](C)[C@@](O)(O3)C(=O)C(=O)N3CCCC[C@H]3C(=O)O2)CC[C@H]1O (stereo partly drawn) [I-10] | YES | –
12 | < 0.1 | 30 to 60 (≈ 31 to 61.9 µg/mL) | ≥ 100 | CO[C@@H]1C[C@H](C[C@@H](C)[C@@H]2CC(=O)[C@H](C)/C=C(\C)[C@@H](O)[C@@H](OC)C(=O)[C@H](C)C[C@H](C)/C=C/C=C/C=C(\C)[C@@H](OCCOCCOCCO)C[C@@H]3CC[C@@H](C)[C@@](O)(O3)C(=O)C(=O)N3CCCC[C@H]3C(=O)O2)CC[C@H]1O [Compound I-29] | – | –
13 | 0.1 to 1 | > 60 | ≥ 100 | CO[C@@H]1C[C@H](C[C@@H](C)[C@@H]2CC(=O)[C@H](C)/C=C(\C)[C@@H](O)[C@@H](OC)C(=O)[C@H](C)C[C@H](C)/C=C/C=C/C=C(\C)[C@H](OCCOCCOCCO)C[C@@H]3CC[C@@H](C)[C@@](O)(O3)C(=O)C(=O)N3CCCC[C@H]3C(=O)O2)CC[C@H]1O [Compound I-30] | – | –
14 | < 0.1 | – | ≥ 100 | CO[C@@H]1C[C@H](C[C@@H](C)[C@@H]2CC(=O)[C@H](C)/C=C(\C)[C@@H](O)[C@@H](OC)C(=O)[C@H](C)C[C@H](C)/C=C/C=C/C=C(\C)C(OCCOCCO)C[C@@H]3CC[C@@H](C)[C@@](O)(O3)C(=O)C(=O)N3CCCC[C@H]3C(=O)O2)CC[C@H]1OCCO (stereo partly drawn) [I-23, (21E,23E,25E,26E,34R,35S,36R,37R,38S,41S,43S,45R,46R,55R)-45,55-dihydroxy-42-[2-(2-hydroxyethoxy)ethoxy]-43-[(1R)-2-[(1S,2R,3R)-3-(2-hydroxyethoxy)-2-methoxy-cyclohexyl]-1-methyl-ethyl]-46-methoxy-34, 35,36,37,47,48-hexamethyl-66,67-dioxa-56-azatricyclohexatriaconta-21, 23,25(47),26(48)-tetraene-49,50,51,52,53-pentone] | YES | –

From US11944605B2, “Rapamycin analogs and uses thereof” (Janssen Pharmaceutica NV, priority 2018, dated 2024)
